The nature of data set [1]: Oral bioavailability in rat at 250 mg/kg. It counts as ADME, organism-based. Conditions: in vivo.
Data set [2] can be described thus: Clearance in rat at 1 mg/kg, iv relative to hepatic blood flow. Format: ADME, organism-based, Liver. To be noted: in vivo.

Where only a bound is given, the exact number is not on record here.

The results in this text go back to ChEMBL document CHEMBL3608240, “Tetrahydropyrrolo-diazepenones as inhibitors of ERK2 kinase” (Bioorg Med Chem Lett, 2015).

One may read the bioavailability as dose-corrected exposure relative to a reference, in per cent. A higher bioavailability goes with much systemic uptake. A word on the clearance: it is the rate of elimination divided by the concentration. Read a low clearance as inefficient removal. `O=C1c2cc(-c3ccnc(NC4CCOCC4)n3)cn2CCCN1[C@H](CO)c1ccccc1`: in data set [1], the bioavailability was under 10%. Moreover, in data set [2], the clearance was determined as 79 mL/min/kg.
